Experimental data reported in patent US8202865B2, “Oxadiazole derivatives” (Merck Serono SA, priority 2007, dated 2012).
Where a name gives a salt, the structure may show the parent alone. One block for each compound: values may come before it.

What was measured:
S1P1 [1] = molecular target: T1, S1P1 (Homo sapiens, UniProt P21453); assay: 35S-GTPγS binding, S1P1 membranes; type: biochemical; details: membranes from CHO cells expressing S1P1; 60 min 30° C.
T1 construct: expressed in transfected cells; host or cells: CHO cells (membranes)
How it was run: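 CHO-cell membranes expressing S1P1 or S1P3 (1-10 μg) incubated with compounds in 20 mM HEPES pH 7.4, 10 mM MgCl2, 140 mM NaCl, saponin, 0.2% BSA, 1.7 μM GDP and [35S]-GTPγS (20 μl of 1.5 nM added), 60 min at 30° C. Bound radioactivity expressed as % of S1P activation.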

S1P1 [2] = molecular target: T1, S1P1; assay: Receptor binding assay, [33P]sphingosine 1-phosphate, membranes, WGA SPA beads; details: membranes from CHO cells expressing S1P1; 25 pM [33P]S1P; 60 min RT
Method: (§1) Receptor binding assay: Membranes were prepared from CHO cells expressing S1P1 or S1P3 for use in ligand and […] binding studies. Cells were suspended in 50 mM TRIS, pH 7.4, 2 mM EDTA, 250 mM Sucrose (buffer A) and 1× Complete protease inhibitor cocktail (Roche), and disrupted at 4° C. by N2 decompression using a cell disruption bomb (Parr Instrument). Following centrifugation at 1000 RPM for 10 min at 4° C., the supernatant was suspended in buffer A and centrifuged again at 19000 RPM for 60 min at 4° C. The pellet was then suspended in 10 mM HEPES, pH 7.4, 1 mM EDTA, 250 mM Sucrose (Buffer B), and 1× Complete EDTA-free protease inhibitor cocktail and homogenized using a potter. Membranes were flash frozen in liquid N2 and stored at −80° C. [33P]sphingosine 1-phosphate (3000 Ci/mmol; American Radiolabeled Chemicals, Inc.) was added to test compounds in DMSO. Membranes and WGA SPA beads (GE Healthcare) were added to give a final volume of 100 μl in 96-well plates with assay concentrations of 25 pM or 10 pM [33P]sphingosine 1-phosphate (respectively for S1P1 or S1P3), 50 mM HEPES, pH 7.5, 5 mM MgCl2, 100 mM NaCl, 0.4% fatty acid-free BSA, 1-5 μg/well of proteins and 100 μg/well of WGA SPA beads. Binding was performed for 60 min at RT on a shaker and bound radioactivity was measured on a PerkinElmer 1450 MicroBeta counter. Specific binding was calculated by subtracting remaining radioactivity in the presence of 1000-fold excess of unlabeled S1P. Binding data were analyzed using the GraphPad Prism program.

S1P3 = molecular target: T2, S1P3 (Homo sapiens, UniProt Q99500); assay: 35S-GTPγS binding, S1P3 membranes; type: biochemical; details: membranes from CHO cells expressing S1P3; 60 min 30° C.
T2 construct: expressed in transfected cells; host or cells: CHO cells (membranes)
Method: as §1
Measurements of ^35S-GTPγS Binding: Membranes (1 to 10 μg protein) prepared as described above, were incubated in 96-well Scintiplates (PerkinElmer) with test compounds diluted in DMSO, in 180 μl of 20 mM HEPES, pH 7.4, 10 mM MgCl2, 2 μg/well Saponin, 0.2% fatty acid free BSA (Assay buffer), 140 mM NaCl and 1.7 μM GDP. The assay was initiated with the addition of 20 μl of 1.5 nM [35S]-GTPγS (1100 Ci/mmol; GE Healthcare) in assay buffer. After 60 min incubation at 30° C. on a shaker, plates were centrifuged for 10 min at 2000 RPM. Supernatant was discarded and membrane bound radioactivity was measured on a PerkinElmer 1450 MicroBeta counter. Triplicate samples were averaged and expressed as % response relative to S1P activation in absence of compound (n=2).

T1 sequence (P21453 whole entry, species assumed): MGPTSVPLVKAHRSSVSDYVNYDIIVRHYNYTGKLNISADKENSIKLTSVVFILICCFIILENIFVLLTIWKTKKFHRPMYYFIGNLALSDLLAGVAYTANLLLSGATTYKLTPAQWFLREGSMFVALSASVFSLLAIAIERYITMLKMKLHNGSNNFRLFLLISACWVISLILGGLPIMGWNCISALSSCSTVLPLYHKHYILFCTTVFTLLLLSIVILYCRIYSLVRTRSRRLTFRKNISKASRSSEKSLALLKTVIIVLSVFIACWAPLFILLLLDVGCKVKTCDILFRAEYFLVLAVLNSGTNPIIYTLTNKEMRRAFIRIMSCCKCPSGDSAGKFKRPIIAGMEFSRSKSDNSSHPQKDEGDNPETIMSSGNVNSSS
T2 sequence (Q99500 whole entry, species assumed): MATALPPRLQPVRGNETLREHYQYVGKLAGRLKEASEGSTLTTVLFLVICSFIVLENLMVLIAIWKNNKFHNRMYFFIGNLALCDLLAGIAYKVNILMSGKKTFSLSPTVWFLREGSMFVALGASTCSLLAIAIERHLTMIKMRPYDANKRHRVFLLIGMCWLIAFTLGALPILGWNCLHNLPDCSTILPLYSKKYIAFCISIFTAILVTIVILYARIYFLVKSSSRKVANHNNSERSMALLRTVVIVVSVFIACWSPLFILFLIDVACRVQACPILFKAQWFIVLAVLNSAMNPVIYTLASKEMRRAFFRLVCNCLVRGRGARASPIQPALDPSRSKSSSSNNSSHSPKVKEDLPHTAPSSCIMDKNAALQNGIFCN

EC50 (S1P1 [1]): 0.133 µM
Ki (S1P1 [2]): 0.065 µM
EC50 (S1P3): > 30 µM
SMILES: Cc1ccccc1-c1ccc(-c2nc(-c3ccc(C(=O)O)c(Cl)c3)no2)cc1C [Example 68, 2-chloro-4-[5-(2,2′-dimethylbiphenyl-4-yl)-1,2,4-oxadiazol-3-yl]benzoic acid]

EC50 (S1P1 [1]): 0.317 µM
Ki (S1P1 [2]): 0.126 µM
EC50 (S1P3): > 30 µM
SMILES: Cc1ccccc1-c1ccc(-c2nc(-c3ccc(C(=O)O)c(F)c3)no2)cc1C [Example 4, 4-[5-(2,2′-dimethylbiphenyl-4-yl)-1,2,4-oxadiazol-3-yl]-2-fluorobenzoic acid]

EC50 (S1P1 [1]): 0.092 µM
Ki (S1P1 [2]): 0.024 µM
EC50 (S1P3): 0.699 µM
SMILES: Cc1ccccc1-c1ccc(-c2nc(-c3ccc(C(=O)O)c(F)c3)no2)cc1CN(C)C [Example 62, 4-(5-{2-[(dimethylamino)methyl]-2′-methylbiphenyl-4-yl}-1,2,4-oxadiazol-3-yl)-2-fluorobenzoic acid, Hydrochloride salt]

EC50 (S1P1 [1]): 0.182 µM
Ki (S1P1 [2]): 0.177 µM
EC50 (S1P3): 1.35 µM
SMILES: Cc1ccccc1-c1ccc(-c2nc(-c3ccc(C(=O)O)c(F)c3)no2)cc1CN1CCOCC1 [Example 75, 2-fluoro-4-{5-[2′-methyl-2-(morpholin-4-ylmethyl)biphenyl-4-yl]-1,2,4-oxadiazol-3-yl}benzoic acid, Trifluoroacetic acid salt]

EC50 (S1P1 [1]): 0.0025 µM
Ki (S1P1 [2]): 0.0008 µM
EC50 (S1P3): 0.422 µM
SMILES: COCc1cc(-c2nc(-c3ccc(F)c(CN(C)CC(=O)O)c3)no2)ccc1-c1ccccc1C [Example 146, N-(2-fluoro-5-{5-[2-(methoxymethyl)-2′-methylbiphenyl-4-yl]-1,2,4-oxadiazol-3-yl}benzyl)-N-methylglycine, Hydrochloride salt]

EC50 (S1P1 [1]): 0.06 µM
Ki (S1P1 [2]): 0.03 µM
EC50 (S1P3): 0.615 µM
SMILES: CCOCc1cc(-c2nc(-c3ccc(C(=O)O)c(F)c3)no2)ccc1-c1ccccc1C [Example 63, 4-{5-[2-(ethoxymethyl)-2′-methylbiphenyl-4-yl]-1,2,4-oxadiazol-3-yl}-2-fluorobenzoic acid]

EC50 (S1P1 [1]): 0.208 µM
Ki (S1P1 [2]): 0.074 µM
EC50 (S1P3): > 20 µM
SMILES: COCc1cc(-c2nc(-c3ccc(C(=O)O)c(F)c3)no2)ccc1-c1ccccc1OC [Example 79, 2-fluoro-4-{5-[2′-methoxy-2-(methoxymethyl)biphenyl-4-yl]-1,2,4-oxadiazol-3-yl}benzoic acid]

EC50 (S1P1 [1]): 0.015 µM
Ki (S1P1 [2]): 0.002 µM
EC50 (S1P3): 3.03 µM
SMILES: CCc1ccccc1-c1ccc(-c2nc(-c3ccc(C(=O)O)c(F)c3)no2)cc1COC [Example 78, 4-{5-[2′-ethyl-2-(methoxymethyl)biphenyl-4-yl]-1,2,4-oxadiazol-3-yl}-2-fluorobenzoic acid]

EC50 (S1P1 [1]): 0.115 µM
Ki (S1P1 [2]): 0.028 µM
EC50 (S1P3): 2.78 µM
SMILES: COCc1cc(-c2nc(-c3ccc(C(=O)O)c(F)c3)no2)ccc1-c1ccccc1F [Example 81, 2-fluoro-4-{5-[2′-fluoro-2-(methoxymethyl)biphenyl-4-yl]-1,2,4-oxadiazol-3-yl}benzoic acid]

EC50 (S1P1 [1]): 0.034 µM
Ki (S1P1 [2]): 0.026 µM
EC50 (S1P3): 2.63 µM
SMILES: COCc1cc(-c2nc(-c3ccc(C(=O)O)c(Cl)c3)no2)ccc1-c1ccccc1C [Example 69, 2-chloro-4-{5-[2-(methoxymethyl)-2′-methylbiphenyl-4-yl]-1,2,4-oxadiazol-3-yl}benzoic acid]

The remaining lines, values behind:

SMILES: COCc1cc(-c2nc(-c3ccc(OCC(=O)O)c(F)c3)no2)ccc1-c1ccccc1C [Example 166, (2-fluoro-{5-[2-(methoxymethyl)-2′-methylbiphenyl-4-yl]-1,2,4-oxadiazol-3-yl}phenoxy)acetic acid]
EC50 (S1P1 [1]): 0.014 µM
Ki (S1P1 [2]): 0.011 µM
EC50 (S1P3): 0.219 µM

SMILES: COCc1cc(-c2nc(-c3cccc(CNC4(C(=O)O)CC4)c3)no2)ccc1-c1ccccc1C [Example 151, 1-[(3-{5-[2-(methoxymethyl)-2′-methylbiphenyl-4-yl]-1,2,4-oxadiazol-3-yl}benzyl)amino]cyclopropanecarboxylic acid]
EC50 (S1P1 [1]): 0.0048 µM
Ki (S1P1 [2]): 0.0065 µM
EC50 (S1P3): 0.175 µM

SMILES: COCc1cc(-c2nc(-c3ccc(C(=O)O)c(F)c3)no2)ccc1-c1cc(F)ccc1C [Example 84, 2-fluoro-4-{5-[5′-fluoro-2-(methoxymethyl)-2′-methylbiphenyl-4-yl]-1,2,4-oxadiazol-3-yl}benzoic acid]
EC50 (S1P1 [1]): 0.034 µM
Ki (S1P1 [2]): 0.055 µM
EC50 (S1P3): 2.8 µM

SMILES: COCc1cc(-c2nc(-c3cccc(CN(C)CC(=O)O)c3)no2)ccc1OC(C)C [Example 148, N-(3-{5-[4-isopropoxy-3-(methoxymethyl)phenyl]-1,2,4-oxadiazol-3-yl}benzyl)-N-methylglycine, Hydrochloride salt]
EC50 (S1P1 [1]): 0.004 µM
Ki (S1P1 [2]): 0.0007 µM
EC50 (S1P3): 2.35 µM

SMILES: COCc1cc(-c2nc(-c3ccc(C(N)=O)cc3)no2)ccc1-c1ccccc1C [Example 178, 4-{5-[2-(methoxymethyl)-2′-methylbiphenyl-4-yl]-1,2,4-oxadiazol-3-yl}benzamide]
EC50 (S1P1 [1]): 0.0048 µM
Ki (S1P1 [2]): 0.001 µM
EC50 (S1P3): 0.141 µM

SMILES: O=C(O)c1ccc(-c2noc(-c3ccc(-c4ccccc4Cl)cc3)n2)cc1F [Example 2, 4-[5-(2′-chlorobiphenyl-4-yl)-1,2,4-oxadiazol-3-yl]-2-fluorobenzoic acid]
EC50 (S1P1 [1]): 4.72 µM
Ki (S1P1 [2]): 1.5 µM
EC50 (S1P3): > 30 µM

SMILES: COCc1cc(-c2nc(-c3cccc(C(=O)NCCC#N)c3)no2)ccc1-c1ccccc1C [Example 183, N-(2-cyanoethyl)-3-{5-[2-(methoxymethyl)-2′-methylbiphenyl-4-yl]-1,2,4-oxadiazol-3-yl}benzamide]
EC50 (S1P1 [1]): 0.0024 µM
Ki (S1P1 [2]): 0.002 µM
EC50 (S1P3): 5.6 µM

SMILES: COCc1cc(-c2nc(-c3ccc(C(=O)NCCC(=O)O)c(F)c3)no2)ccc1-c1ccccc1C [Example 119, N-(2-fluoro-4-{5-[2-(methoxymethyl)-2′-methylbiphenyl-4-yl]-1,2,4-oxadiazol-3-yl}benzoyl)-beta-alanine]
EC50 (S1P1 [1]): 0.0073 µM
Ki (S1P1 [2]): 0.002 µM
EC50 (S1P3): 0.502 µM

SMILES: COCc1cc(-c2nc(-c3ccc(C(=O)NCCNC(C)=O)c(F)c3)no2)ccc1-c1ccccc1C [Example 174, N-[2-(acetylamino)ethyl]-2-fluoro-4-{5-[2-(methoxymethyl)-2′-methylbiphenyl-4-yl]-1,2,4-oxadiazol-3-yl}benzamide]
EC50 (S1P1 [1]): 0.017 µM
Ki (S1P1 [2]): 0.0034 µM
EC50 (S1P3): 1.42 µM

SMILES: Cc1ccccc1-c1ccc(-c2nc(-c3ccc(NCC(=O)O)c(F)c3)no2)cc1C [Example 56, N-{4-[5-(2,2′-dimethylbiphenyl-4-yl)-1,2,4-oxadiazol-3-yl]-2-fluorophenyl}glycine]
EC50 (S1P1 [1]): 0.07 µM
Ki (S1P1 [2]): 0.01 µM
EC50 (S1P3): 14.5 µM

SMILES: COCc1cc(-c2nc(-c3cccc(S(N)(=O)=O)c3)no2)ccc1-c1ccccc1C [Example 170, 3-{5-[2-(methoxymethyl)-2′-methylbiphenyl-4-yl]-1,2,4-oxadiazol-3-yl}benzenesulfonamide]
EC50 (S1P1 [1]): 0.0007 µM
Ki (S1P1 [2]): 0.0008 µM
EC50 (S1P3): 0.214 µM

SMILES: CC1CCCCN1c1ccc(-c2nc(-c3ccc(C(=O)O)cc3F)no2)cc1C(F)(F)F (stereo not drawn) [Example 27, 3-fluoro-4-{5-[4-(2-methylpiperidin-1-yl)-3-(trifluoromethyl)phenyl]-1,2,4-oxadiazol-3-yl}benzoic acid]
EC50 (S1P1 [1]): 1.1 µM
Ki (S1P1 [2]): 0.505 µM
EC50 (S1P3): > 20 µM

SMILES: Cc1ccccc1-c1ccc(-c2nc(-c3ccc(C(=O)O)cc3F)no2)cc1C [Example 10, 4-[5-(2,2′-dimethylbiphenyl-4-yl)-1,2,4-oxadiazol-3-yl]-3-fluorobenzoic acid]
EC50 (S1P1 [1]): 3.51 µM
Ki (S1P1 [2]): 0.33 µM
EC50 (S1P3): > 30 µM

SMILES: CCOC(=O)C1(NC(=O)c2ccc(-c3noc(-c4ccc(-c5ccccc5C)c(COC)c4)n3)cc2F)CC1 [Example 118, Ethyl 1-[(2-fluoro-4-{5-[2-(methoxymethyl)-2′-methylbiphenyl-4-yl]-1,2,4-oxadiazol-3-yl}benzoyl)amino]cyclopropanecarboxylate]
EC50 (S1P1 [1]): 0.007 µM
Ki (S1P1 [2]): 0.002 µM
EC50 (S1P3): 2.16 µM
